SMILES strings stand for the structures.
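Note: aromatic molecules in triethylamine/methanol/water with Pt photoreduced in situ, irradiated 3 h under a 1 sun AM 1.5G solar simulator (350–1000 nm), H2 quantified by headspace gas chromatography; listed molecule itself used as the photocatalyst at 5 mg per vial.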

This data set can be described thus: photocatalytic hydrogen evolution rate (per 5 mg catalyst); higher = more photocatalytic H2 evolution; extreme values may be limits of the assay. Conditions: catalyst mass (mg): 5; Pt cocatalyst (wt%): 3; sacrificial medium: triethylamine/methanol/water 1:1:1.
With `O=C1c2ccc(Br)cc2C(=O)c2ccc(Br)cc21`, the “photocatalytic hydrogen evolution rate” value turned out to be 0 µmol/h.

For the compound `COc1ccc(B(O)O)cc1C=O`, the “photocatalytic hydrogen evolution rate” value was determined as 2.76 µmol/h. In the case of `OC(c1ccccc1)(c1ccccc1)c1ccccc1`, the “photocatalytic hydrogen evolution rate” value was found to be 0 µmol/h.

Consider `O=Cc1ccc(-c2ccc(F)cc2)cc1`, for which the “photocatalytic hydrogen evolution rate” value turned out to be 5.25 µmol/h. Under `Oc1ccc2ccccc2c1-c1c(O)ccc2ccccc12` stands 0 µmol/h; under `Nc1ccc(-c2nc(-c3ccc(N)cc3)nc(-c3ccc(N)cc3)n2)cc1`, 0 µmol/h. To `O=Cc1cc(F)cc(Br)c1` belongs 0.0795 µmol/h. To `O=Cc1ccc(O)c(Cl)c1` belongs 0.0661 µmol/h; to `O=Cc1ncc[nH]1`, 0.469 µmol/h; to `CC1(C)OB(c2cn[nH]c2)OC1(C)C`, 0 µmol/h. `O=Cc1ccc(Br)c(Cl)c1`: the “photocatalytic hydrogen evolution rate” value is 1.45 µmol/h.

For `Brc1cccc(-c2cccc(Br)n2)n1`, the “photocatalytic hydrogen evolution rate” value turned out to be 0 µmol/h.

For the compound `N#Cc1ccc(-c2ccc(C#N)nc2)cn1`, the “photocatalytic hydrogen evolution rate” value amounted to 0.0601 µmol/h. For `Cc1cc(C#N)c(C)cc1C#N`, the “photocatalytic hydrogen evolution rate” value was 0 µmol/h. For the compound `Oc1ccc(-c2ccc(O)cc2)cc1`, the “photocatalytic hydrogen evolution rate” value came to 0.00401 µmol/h. As for `N#CC(C#N)=C1CC(=C(C#N)C#N)c2ccccc21`, the “photocatalytic hydrogen evolution rate” value was determined as 0 µmol/h. For the compound `O=Cc1ccc(Cl)c(O)c1`, the “photocatalytic hydrogen evolution rate” value is 0 µmol/h. Under `Brc1ccc(Br)c2nsnc12` stands 1.29 µmol/h; under `CCn1c2ccccc2c2cc(C=O)ccc21`, 2.45 µmol/h; under `c1ccc2c(c1)ccc1ccccc12`, 0.057 µmol/h. On to `N#CCc1ccc(-c2ccc(CC#N)cn2)nc1`, for which the “photocatalytic hydrogen evolution rate” value is 0.0108 µmol/h. Under `c1ncncn1` stands 0 µmol/h. To `c1ccc(N(c2ccccc2)c2cc(N(c3ccccc3)c3ccccc3)cc(N(c3ccccc3)c3ccccc3)c2)cc1` belongs 0 µmol/h. For `O=C1CCc2cccc(O)c21`, the “photocatalytic hydrogen evolution rate” value came to 2.68 µmol/h.

Turning to `c1cc(-c2cn[nH]c2)ccc1-c1cn[nH]c1`, the “photocatalytic hydrogen evolution rate” value was determined as 0 µmol/h. With `COc1ccc(N2C(=O)c3ccc4c5ccc6c7c(ccc(c8ccc(c3c48)C2=O)c75)C(=O)N(c2ccc(OC)cc2)C6=O)cc1`, the “photocatalytic hydrogen evolution rate” value is 0 µmol/h. For `N#Cc1cccc(-c2cccc(C=O)c2)c1`, the “photocatalytic hydrogen evolution rate” value came out at 1.09 µmol/h. Under `NNC(=O)COc1ccc(Br)cc1Br` stands 0 µmol/h; under `O=c1[nH]cc[nH]1`, 0 µmol/h; under `c1ccc(N(c2ccccc2)c2ccccc2)cc1`, 0 µmol/h. Under `OB(O)c1cc(F)c(B(O)O)cc1F` stands 0 µmol/h; under `O=Cc1ccc(N2CCS(=O)(=O)CC2)cc1`, 2.73 µmol/h.

Consider `Cc1cc(C)cc(-c2cc(C)cc(C)c2)c1`, for which the “photocatalytic hydrogen evolution rate” value worked out at 0 µmol/h. Turning to `N#Cc1c(F)c(F)c(C#N)c(F)c1F`, the “photocatalytic hydrogen evolution rate” value was determined as 8.13 µmol/h. `Cc1cc(-c2ccc(N)c(C)c2)ccc1N`: the “photocatalytic hydrogen evolution rate” value stood at 0 µmol/h. `N#Cc1ccc(CCc2ccc(C#N)cc2)cc1`: the “photocatalytic hydrogen evolution rate” value worked out at 0 µmol/h. Under `O=Cc1cccc2cccnc12` stands 1.45 µmol/h; under `Oc1ccc2cc(Br)ccc2c1-c1c(O)ccc2cc(Br)ccc12`, 0 µmol/h. For the compound `CC1(C)CC2(CC(C)(C)c3cc(O)c(O)cc32)c2cc(O)c(O)cc21`, the “photocatalytic hydrogen evolution rate” value stood at 0 µmol/h. As to `COC(=O)c1ccc(C(=O)OC)cc1`, the “photocatalytic hydrogen evolution rate” value is 0.0838 µmol/h.

As for `O=Cc1cc(O)cc(F)c1`, the “photocatalytic hydrogen evolution rate” value is 0 µmol/h. As for `Brc1ccc(OCC2CCCCO2)c(Br)c1` (stereo not given), the “photocatalytic hydrogen evolution rate” value worked out at 0 µmol/h. As to `Oc1cccc2cccnc12`, the “photocatalytic hydrogen evolution rate” value was 0 µmol/h.

On to `N#CCc1ccccc1CC#N`, for which the “photocatalytic hydrogen evolution rate” value came out at 0 µmol/h. As for `OB(O)c1ccc(-c2ccc(B(O)O)cc2)cc1`, the “photocatalytic hydrogen evolution rate” value was 0 µmol/h. Under `O=C1c2cc(Br)ccc2-c2ccc(Br)cc21` stands 0.214 µmol/h; under `O=C1C=CC(=O)c2cc3ccccc3cc21`, 0 µmol/h; under `c1ccc(Nc2ccc(Nc3ccccc3)cc2)cc1`, 0 µmol/h. With `O=Cc1cc(Br)ccc1O`, the “photocatalytic hydrogen evolution rate” value stood at 10.5 µmol/h. For `c1ccc2c(c1)ccc1c3ccccc3ccc21`, the “photocatalytic hydrogen evolution rate” value is 0 µmol/h.

For the compound `O=Cc1ccc(O)c(F)c1`, the “photocatalytic hydrogen evolution rate” value turned out to be 0.0382 µmol/h.

Turning to `Brc1ccc2c(c1)sc1cc(Br)ccc12`, the “photocatalytic hydrogen evolution rate” value was determined as 0 µmol/h.

As for `O=C1C=CC(=O)c2c(O)cccc21`, the “photocatalytic hydrogen evolution rate” value came out at 0 µmol/h. For the compound `O=C1OC(=O)c2ccc3c4ccc5c6c(ccc(c7ccc1c2c73)c64)C(=O)OC5=O`, the “photocatalytic hydrogen evolution rate” value is 0 µmol/h. On to `C#Cc1ccc(C(=O)O)cc1`, for which the “photocatalytic hydrogen evolution rate” value worked out at 0 µmol/h.

As for `c1ccc(N=Nc2ccccc2)cc1`, the “photocatalytic hydrogen evolution rate” value is 0 µmol/h. To `N#Cc1cncc(C=O)c1` belongs 0.0889 µmol/h; to `O=C1C=CC(=O)N1c1ccccc1`, 0 µmol/h; to `N#Cc1cc2ccccc2cc1C#N`, 0.401 µmol/h. `CC(C)c1cc(C(C)C)c(-c2ccccc2P(C(C)(C)C)C(C)(C)C)c(C(C)C)c1`: the “photocatalytic hydrogen evolution rate” value was 0 µmol/h. As for `O=Cc1cccc(O)c1O`, the “photocatalytic hydrogen evolution rate” value is 0 µmol/h. In the case of `Cc1cc(C)cc([N+](=O)[O-])c1`, the “photocatalytic hydrogen evolution rate” value came out at 0 µmol/h. For `Fc1cc(Br)c2nsnc2c1Br`, the “photocatalytic hydrogen evolution rate” value turned out to be 0.241 µmol/h. With `Cc1c(C)c(C)c(C=O)c(C)c1C`, the “photocatalytic hydrogen evolution rate” value was 0.844 µmol/h.

`Brc1ccc(I)cc1`: the “photocatalytic hydrogen evolution rate” value was found to be 0 µmol/h. For `N#CCc1cccc(CC#N)c1`, the “photocatalytic hydrogen evolution rate” value is 0 µmol/h. To `O=C(O)Cc1ccc(-c2ccccc2)cc1` belongs 0.0393 µmol/h. Regarding `O=C(O)c1c(C(=O)O)c(C(=O)O)c(C(=O)O)c(C(=O)O)c1C(=O)O`, the “photocatalytic hydrogen evolution rate” value amounted to 0 µmol/h. To `C#Cc1ccc(C#N)cc1` belongs 0 µmol/h; to `O=Cc1ccc(N(c2ccc(C=O)cc2)c2ccc(C=O)cc2)cc1`, 1.46 µmol/h; to `N#Cc1ccc(-c2cccc(N)c2)cc1`, 0 µmol/h. Under `Nc1ccncc1` stands 0 µmol/h. Turning to `c1ccc(-c2nc(-c3ccccc3)nc(-c3ccccc3)n2)cc1`, the “photocatalytic hydrogen evolution rate” value stood at 0.0789 µmol/h. For the compound `Brc1ccc(-c2ccc(-c3ccc(Br)s3)s2)s1`, the “photocatalytic hydrogen evolution rate” value was 0 µmol/h.

`c1ccc(-c2ccccc2)cc1`: the “photocatalytic hydrogen evolution rate” value worked out at 0 µmol/h.

Consider `Nc1c(Br)ccc(Br)c1N`, for which the “photocatalytic hydrogen evolution rate” value worked out at 0 µmol/h.

`C#Cc1cc(C#C)cc(C#C)c1`: the “photocatalytic hydrogen evolution rate” value came out at 0 µmol/h. `Brc1ccc(Br)cc1`: the “photocatalytic hydrogen evolution rate” value turned out to be 0 µmol/h. On to `C(=C\c1ccccc1)/c1ccccc1`, for which the “photocatalytic hydrogen evolution rate” value is 0 µmol/h. In the case of `N#Cc1c(F)cc(F)cc1F`, the “photocatalytic hydrogen evolution rate” value stood at 0.0527 µmol/h.

With `OCCCCc1ccc2ccc3cccc4ccc1c2c34`, the “photocatalytic hydrogen evolution rate” value came to 0.855 µmol/h. To `O=C1C(=O)c2cccnc2-c2ncccc21` belongs 0 µmol/h. With `O=C1C=C(O)C(=O)C=C1O`, the “photocatalytic hydrogen evolution rate” value came out at 0 µmol/h. For the compound `O=c1c(Br)c[nH]cc1Br`, the “photocatalytic hydrogen evolution rate” value turned out to be 0.000384 µmol/h. In the case of `O=C1c2cccc([N+](=O)[O-])c2C(=O)c2c1cccc2[N+](=O)[O-]`, the “photocatalytic hydrogen evolution rate” value is 0 µmol/h. In the case of `BrCc1cc(Br)cc(Br)c1`, the “photocatalytic hydrogen evolution rate” value was 0 µmol/h. As for `COC(=O)c1cccc(C(=O)OC)c1`, the “photocatalytic hydrogen evolution rate” value came to 0.023 µmol/h. As for `Fc1c(F)c(Br)c(F)c(F)c1Br`, the “photocatalytic hydrogen evolution rate” value was 0 µmol/h. Take `c1ccc(C(=C(c2ccccc2)c2ccccc2)c2ccccc2)cc1`: the “photocatalytic hydrogen evolution rate” value came out at 0 µmol/h. `Cc1ccc(C#N)cc1N`: the “photocatalytic hydrogen evolution rate” value turned out to be 0 µmol/h. As to `O=C1c2ccccc2C(=O)c2ccccc21`, the “photocatalytic hydrogen evolution rate” value was determined as 0 µmol/h. For the compound `O=Cc1cc(C=O)c(O)c(C=O)c1`, the “photocatalytic hydrogen evolution rate” value was determined as 10.9 µmol/h. In the case of `Nc1ccc(-c2cc(-c3ccc(N)cc3)cc(-c3ccc(N)cc3)c2)cc1`, the “photocatalytic hydrogen evolution rate” value was 0 µmol/h.

For `N#Cc1cnccc1Br`, the “photocatalytic hydrogen evolution rate” value was 0.0501 µmol/h.

Turning to `O=C1c2cccc(O)c2C(=O)c2cccc(O)c21`, the “photocatalytic hydrogen evolution rate” value was 0 µmol/h.

Take `Nc1ccccc1-c1ccccc1`: the “photocatalytic hydrogen evolution rate” value came to 0 µmol/h.

On to `O=Cc1cccc(-c2ccccc2)c1`, for which the “photocatalytic hydrogen evolution rate” value was determined as 3.14 µmol/h. To `c1ccc(-c2c(-c3ccccc3)c(-c3ccccc3)c(-c3ccccc3)c(-c3ccccc3)c2-c2ccccc2)cc1` belongs 0 µmol/h; to `Cc1ccc(-c2ccc(C=O)cc2)cc1`, 3.39 µmol/h; to `Nc1c(Br)cc2[nH]cnc2c1Br`, 0 µmol/h. On to `O=C1c2ccccc2C(=O)C1(O)O`, for which the “photocatalytic hydrogen evolution rate” value was 0 µmol/h. To `O=[N+]([O-])c1cc(Br)ccc1Br` belongs 0 µmol/h. Regarding `c1ccc2sccc2c1`, the “photocatalytic hydrogen evolution rate” value worked out at 0 µmol/h.

Consider `O=c1c2ccccc2c2cc3c(=O)c4ccccc4c3cc12`, for which the “photocatalytic hydrogen evolution rate” value was determined as 0 µmol/h. With `N#Cc1ccc(C=O)nc1`, the “photocatalytic hydrogen evolution rate” value worked out at 0.139 µmol/h. To `N#Cc1cccnc1-c1ncccc1C#N` belongs 0 µmol/h; to `C#Cc1ccc(N)cc1`, 0 µmol/h. Under `O=Cc1ccc(-c2ccc(C=O)s2)s1` stands 1.18 µmol/h; under `Brc1cc2cc3sc(Br)cc3cc2s1`, 0 µmol/h. As to `O=C(c1ccc(Br)cc1)c1ccc(Br)cc1`, the “photocatalytic hydrogen evolution rate” value was 6.77 µmol/h.

Values taken from the supplement of paper PMC8372320.
